Where two headings read alike, the source gives them in different places.
What was measured:
[1] = test system: sympathetic nerve adrenal branches; test: efferent neural activity of the sympathetic nerve adrenal branches after intravenous carnosine; assay type: in vivo, rat; conditions: 100 ng intravenous
Procedure: (§1) According to the method of Niijima (Neurobiology 3:299-307, 1995), the effect of carnosine on the autonomic nerve activity was investigated. Wistar male rats, weighing about 300 g, that had been kept in an environment of room temperature (24° C.) and free access to the feed were fasted (with free access to water) 12 hours before the start of the experiment. Rats were subjected to abdominal section under urethane anesthesia (1 g/kg body weight, intraperitoneal administration), neurofilaments were isolated from central cut ends of a sympathetic nerve branch or a vagal nerve branch, and the efferent neural activity was recorded via an AC amplifier. The neural activity was observed using an oscilloscope and was recorded into magnetic tape. At the same time, the time course of the neural activity was recorded with a pen-type recorder via a rate meter with a reset time set at 5 seconds.
(§2) Carnosine (100 ng or 1,000 ng dissolved in 0.1 ml physiological saline) was intravenously administered. As the control, physiological saline (0.1 ml) was alone administered intravenously.
(§3) The effect of carnosine administration was calculated as the neural activity count (%) after carnosine administration relative to neural activity count (mean value of 10 activity counts during 5 minutes) before administration set at 100. Five rats were used for each experiment. Data were tested with ANOVA (p<0.05) and were expressed as mean +/− standard error.

[2] = test system: sympathetic nerve hepatic branches; test: efferent neural activity of the sympathetic nerve hepatic branches after intravenous carnosine; assay type: in vivo, rat; conditions: 100 ng intravenous
Procedure: as §1, §2, §3

[3] = test system: sympathetic nerve renal branches; test: efferent neural activity of the sympathetic nerve renal branches after intravenous carnosine; assay type: in vivo, rat; conditions: 1,000 ng intravenous
Procedure: as §1, §2, §3

[4] = test system: vagal nerve celiac branches; test: efferent neural activity of the vagal nerve celiac branches after intravenous carnosine; assay type: in vivo, rat; conditions: 100 ng intravenous
Procedure: as §1, §2, §3
In order to study the effect on the neural activity of the vagal nerve, the efferent neural activity of the vagal nerve celiac branches was recorded.

[5] = test system: DOCA-salt hypertensive rats; test: anti-hypertensive effect in DOCA-salt hypertensive rats (systolic blood pressure); assay type: in vivo, rat
Procedure: Sprague-Dawley male rats (6-week old) were used. The animals were anesthetized by the intraperitoneal administration of pentobarbital at 40 mg/kg body weight, and the right flank was dissected to remove the right kidney. After the surgical operation and a one week recovery period, the animals were divided into the pseudosurgery (sham) group and the deoxycorticosterone acetate (DOCA) salt group. Each group was further divided into the normal diet group, the 0.001% carnosine-containing diet group, and the 0.0001% carnosine-containing group.
The rats of the DOCA-salt group received the subcutaneous injection of DOCA suspended in corn oil at 15 mg/kg body weight twice per week, and tap water supplemented with 1% sodium chloride was given as the drinking water. The sham group received neither DOCA nor sodium chloride. The systolic blood pressure was monitored once per week for five weeks using the tail cuff and the pneumatic pulse transducer (BP-98A, Softron). The experiment employed 9 rats in the DOCA group and 6 rats in the sham group. Data were tested with ANOVA (p<0.05) and were expressed as mean +/− standard error.

[6] = test system: carnosine-degrading enzyme; test: carnosine-degrading enzyme activity in the plasma of rats; assay type: in vitro ADME
[7] = cited from earlier work
[8] = biological target: T1, carnosine-degrading enzyme (Homo sapiens, UniProt Q96KN2); conditions: cited from earlier work
T1 construct: host or cells: human blood
T1 sequence (Q96KN2 27-507 limits assumed): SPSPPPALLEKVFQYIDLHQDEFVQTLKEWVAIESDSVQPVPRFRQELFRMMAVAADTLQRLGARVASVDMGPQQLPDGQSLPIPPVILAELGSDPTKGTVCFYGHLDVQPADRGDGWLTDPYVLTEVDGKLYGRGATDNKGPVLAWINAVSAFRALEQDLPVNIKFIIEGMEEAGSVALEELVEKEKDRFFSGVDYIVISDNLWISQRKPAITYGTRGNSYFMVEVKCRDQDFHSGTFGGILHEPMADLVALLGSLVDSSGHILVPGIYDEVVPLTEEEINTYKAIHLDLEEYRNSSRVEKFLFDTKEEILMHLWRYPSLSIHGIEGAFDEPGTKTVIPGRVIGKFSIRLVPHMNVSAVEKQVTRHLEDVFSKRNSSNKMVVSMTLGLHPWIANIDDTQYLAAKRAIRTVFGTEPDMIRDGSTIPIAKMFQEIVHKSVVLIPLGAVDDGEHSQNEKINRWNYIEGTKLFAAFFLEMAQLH

[9] = 30 minutes after administration
[10] = 60 minutes after administration
[11] = 90 minutes after administration

## NCCC(=O)N[C@@H](Cc1cnc[nH]1)C(=O)O [carnosine, β-alanyl-L-histidine]
[1]; [9]
  suppression rate of efferent neural activity of the sympathetic nerve adrenal branches: 31.3%
[1]; [10]
  suppression rate of efferent neural activity of the sympathetic nerve adrenal branches: 46.9%
[1]; [11]
  suppression rate of efferent neural activity of the sympathetic nerve adrenal branches: 58.1%
[2]; [9]
  suppression rate of efferent neural activity of the sympathetic nerve hepatic branches: 20.1%
[2]; [10]
  suppression rate of efferent neural activity of the sympathetic nerve hepatic branches: 25.9%
[2]; [11]
  suppression rate of efferent neural activity of the sympathetic nerve hepatic branches: 32.0%
[3]; [9]
  suppression rate of efferent neural activity of the sympathetic nerve renal branches: 29.7%
[3]; [10]
  suppression rate of efferent neural activity of the sympathetic nerve renal branches: 32.8%
[3]; [11]
  suppression rate of efferent neural activity of the sympathetic nerve renal branches: 28.0%
[4]; [9]
  promotion rate of efferent neural activity of the vagal nerve celiac branches: 15.4%
[4]; [10]
  promotion rate of efferent neural activity of the vagal nerve celiac branches: 28.6%
[4]; [11]
  promotion rate of efferent neural activity of the vagal nerve celiac branches: 48.7%
[5]; 0.0001% carnosine-containing diet, week five
  suppression rate of increase in systolic blood pressure: 17.8%
[5]; 0.0001% carnosine-containing diet, week four
  suppression rate of increase in systolic blood pressure: 22.1%
[5]; 0.0001% carnosine-containing diet, week one
  suppression rate of increase in systolic blood pressure: 9.6%
[5]; 0.0001% carnosine-containing diet, week three
  suppression rate of increase in systolic blood pressure: 15.0%
[5]; 0.0001% carnosine-containing diet, week two
  suppression rate of increase in systolic blood pressure: 10.2%
[5]; 0.001% carnosine-containing diet, week five
  suppression rate of increase in systolic blood pressure: 25.5%
[5]; 0.001% carnosine-containing diet, week four
  suppression rate of increase in systolic blood pressure: 21.5%
[5]; 0.001% carnosine-containing diet, week one
  suppression rate of increase in systolic blood pressure: 6.2%
[5]; 0.001% carnosine-containing diet, week three
  suppression rate of increase in systolic blood pressure: 19.6%
[5]; 0.001% carnosine-containing diet, week two
  suppression rate of increase in systolic blood pressure: 12.4%
[6]
  carnosine-degrading enzyme activity: 0.01 to 0.04 µmol/h/mL
[7]; administered to the jejunum of mice in combination with L-alanine
  absorptivity relative to carnosine alone: more than two-fold higher
[7]; administered to the jejunum of mice with β-alanine
  absorptivity relative to carnosine alone: more than tripled
[7]; mice
  oral absorptivity: 30-70%
[8]
  activity of a carnosine-degrading enzyme in the blood: 2 to 7 µmol/h/mL

From patent publication US20030065030A1, “Autonomic controlling agents and health drinks and foods” (priority 2001, published 2003)
